The target of assay [1] is T1, truncated elephant shark MR (Elephant shark MR-DBD-hinge-LBD) (Callorhinchus milii, UniProt A0A4W3I5J5).
T1 sequence (A0A4W3I5J5 575-956 limits assumed): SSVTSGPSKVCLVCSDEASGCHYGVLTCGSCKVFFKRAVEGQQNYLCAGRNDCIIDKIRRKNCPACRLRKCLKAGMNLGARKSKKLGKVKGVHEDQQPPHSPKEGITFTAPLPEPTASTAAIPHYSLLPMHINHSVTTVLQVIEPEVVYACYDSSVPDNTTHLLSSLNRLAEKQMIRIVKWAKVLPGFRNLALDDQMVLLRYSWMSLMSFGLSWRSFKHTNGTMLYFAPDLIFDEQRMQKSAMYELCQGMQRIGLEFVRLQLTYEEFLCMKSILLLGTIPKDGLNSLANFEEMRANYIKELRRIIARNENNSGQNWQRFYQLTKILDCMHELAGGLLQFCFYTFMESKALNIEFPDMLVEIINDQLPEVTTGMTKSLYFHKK
Nature of the assay: cell-based. Also noted: species or system HEK293.

For assay [2], the target named is T2, full-length elephant shark GR (Callorhinchus milii, UniProt V9KGN8).
T2 sequence (V9KGN8 1-704): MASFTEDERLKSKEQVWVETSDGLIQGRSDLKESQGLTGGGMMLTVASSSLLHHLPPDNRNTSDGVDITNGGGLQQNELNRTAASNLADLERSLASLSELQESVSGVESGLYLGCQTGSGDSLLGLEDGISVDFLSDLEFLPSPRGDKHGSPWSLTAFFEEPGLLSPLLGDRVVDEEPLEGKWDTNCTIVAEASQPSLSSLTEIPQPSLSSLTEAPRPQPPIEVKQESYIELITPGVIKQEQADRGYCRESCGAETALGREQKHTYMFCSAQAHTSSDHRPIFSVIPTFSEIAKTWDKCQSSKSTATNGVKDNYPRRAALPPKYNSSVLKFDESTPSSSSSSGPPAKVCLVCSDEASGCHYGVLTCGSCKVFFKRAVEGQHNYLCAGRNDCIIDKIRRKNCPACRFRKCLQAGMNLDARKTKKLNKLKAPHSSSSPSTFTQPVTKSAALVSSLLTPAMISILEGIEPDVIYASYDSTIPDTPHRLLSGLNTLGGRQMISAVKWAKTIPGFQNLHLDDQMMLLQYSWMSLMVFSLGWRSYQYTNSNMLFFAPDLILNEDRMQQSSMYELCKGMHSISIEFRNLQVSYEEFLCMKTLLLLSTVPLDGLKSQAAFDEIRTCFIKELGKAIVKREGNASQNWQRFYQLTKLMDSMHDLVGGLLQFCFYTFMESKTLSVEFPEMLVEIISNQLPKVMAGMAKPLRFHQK
The assay is described as follows: transactivation assay, MMTV-luciferase reporter, HEK293 cells. It counts as cell-based. A general note: In a reporter assay the amount or activity of a reporter protein is the signal.

The target in assay [3] is T2, full-length elephant shark GR. Nature of the assay: cell-based. Also noted: species or system HEK293.
Assay [4] concerns the target T3, GAL4-DBD+elephant shark GR-hinge-LBD (Callorhinchus milii, UniProt V9KGN8).
T3 sequence (V9KGN8 422-704 limits assumed): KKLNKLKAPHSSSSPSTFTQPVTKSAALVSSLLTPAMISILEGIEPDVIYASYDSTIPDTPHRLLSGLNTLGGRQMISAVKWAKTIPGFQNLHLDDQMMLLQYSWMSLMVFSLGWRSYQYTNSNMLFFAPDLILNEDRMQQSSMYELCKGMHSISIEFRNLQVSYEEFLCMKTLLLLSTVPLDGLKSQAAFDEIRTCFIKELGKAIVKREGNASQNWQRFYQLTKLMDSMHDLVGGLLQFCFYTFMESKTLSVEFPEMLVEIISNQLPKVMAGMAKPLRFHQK
Nature of the assay: cell-based. Also noted: species or system HEK293.

Assay [5] addresses T4, truncated elephant shark GR (Elephant shark GR-DBD-hinge-LBD) (Callorhinchus milii, UniProt V9KGN8).
T4 sequence (V9KGN8 346-704 limits assumed): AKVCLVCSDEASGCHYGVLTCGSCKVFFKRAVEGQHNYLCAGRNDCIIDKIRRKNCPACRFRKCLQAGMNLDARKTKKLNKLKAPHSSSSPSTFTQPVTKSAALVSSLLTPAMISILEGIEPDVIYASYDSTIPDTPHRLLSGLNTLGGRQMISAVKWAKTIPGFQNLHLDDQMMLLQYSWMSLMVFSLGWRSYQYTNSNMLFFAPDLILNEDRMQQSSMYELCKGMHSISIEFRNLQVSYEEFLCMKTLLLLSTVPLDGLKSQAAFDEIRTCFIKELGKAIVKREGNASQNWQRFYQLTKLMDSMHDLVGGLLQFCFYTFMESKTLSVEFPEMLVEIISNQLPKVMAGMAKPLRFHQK
The assay is described as follows: cell-based. Also noted: species or system HEK293.

In assay [6] the target is T2, full-length elephant shark GR. The assay is described as follows: inhibition of dexamethasone-activated luciferase reporter, HEK293 cells. In kind it is cell-based.
Assay [7] shares this target. The assay is described as follows: luciferase reporter transactivation, HEK293 cells. In kind it is cell-based.
The target of assay [8] is T5, full-length elephant shark MR (Callorhinchus milii, UniProt A0A4W3I5J5).
T5 sequence (A0A4W3I5J5 1-956): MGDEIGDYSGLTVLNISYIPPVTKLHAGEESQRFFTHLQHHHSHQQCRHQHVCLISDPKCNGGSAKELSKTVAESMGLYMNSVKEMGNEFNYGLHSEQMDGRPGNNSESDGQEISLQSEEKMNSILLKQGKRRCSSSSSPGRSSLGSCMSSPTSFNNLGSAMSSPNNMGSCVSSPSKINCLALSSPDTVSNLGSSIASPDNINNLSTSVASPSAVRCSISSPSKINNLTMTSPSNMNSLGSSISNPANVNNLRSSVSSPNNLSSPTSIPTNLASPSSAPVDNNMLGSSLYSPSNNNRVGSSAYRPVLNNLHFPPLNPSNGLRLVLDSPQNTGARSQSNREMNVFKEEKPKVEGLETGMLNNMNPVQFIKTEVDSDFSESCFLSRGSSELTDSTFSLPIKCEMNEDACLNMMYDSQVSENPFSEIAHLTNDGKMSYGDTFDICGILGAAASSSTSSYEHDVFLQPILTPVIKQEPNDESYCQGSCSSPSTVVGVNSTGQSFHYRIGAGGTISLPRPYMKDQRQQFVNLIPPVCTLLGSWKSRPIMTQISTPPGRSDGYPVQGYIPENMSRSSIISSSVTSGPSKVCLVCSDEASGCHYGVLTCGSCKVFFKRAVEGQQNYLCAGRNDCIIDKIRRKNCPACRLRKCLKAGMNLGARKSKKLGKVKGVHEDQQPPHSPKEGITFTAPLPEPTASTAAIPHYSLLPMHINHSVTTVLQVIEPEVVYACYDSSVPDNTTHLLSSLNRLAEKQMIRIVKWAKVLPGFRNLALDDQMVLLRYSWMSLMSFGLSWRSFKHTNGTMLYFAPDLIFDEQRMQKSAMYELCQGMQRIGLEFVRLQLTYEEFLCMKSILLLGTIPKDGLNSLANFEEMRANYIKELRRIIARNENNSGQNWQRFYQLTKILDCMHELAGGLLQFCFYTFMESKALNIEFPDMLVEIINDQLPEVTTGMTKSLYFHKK
The assay is described as follows: cell-based. Also noted: species or system HEK293.

Assay [9] has as its system Elephant shark Chimera GR-NTD+MR-DBD-hinge-LBD. The settings on record: agonist.
For assay [10], the target named is truncated elephant shark MR (Elephant shark MR-DBD-hinge-LBD) (Callorhinchus milii, UniProt A0A4W3I5J5). Nature of the assay: cell-based.
Assay [11] deals with T1, truncated elephant shark MR (Elephant shark MR-DBD-hinge-LBD). Nature of the assay: cell-based. Also noted: species or system HEK293. The source holds these as a separate data set.
Assay [12] has as its system Elephant shark Chimera MR-NTD+GR-DBD-hinge-LBD. Nature of the assay: transactivation assay, MMTV-luciferase reporter, HEK293 cells. In kind it is cell-based, Callorhinchus milii. The settings on record: agonist.
[13] abbreviates: HEK293, read-out: Aldo % Relative Induction, GR.
Setting [14] is: HEK293, read-out: DOC % Relative Induction, GR.
Where [15] appears, read: HEK293, read-out: DOC % Relative Induction, MR.
Where [16] appears, read: HEK293, read-out: Cortisol % Relative Induction, GR.
The mark [17] stands for this setting: HEK293, read-out: Cortisol % Relative Induction, MR.
Setting [18] is: HEK293, read-out: Corticosterone % Relative Induction, GR.
Where [19] appears, read: HEK293, read-out: Corticosterone % Relative Induction, MR.
The mark [20] stands for this setting: HEK293, read-out: Prog % Relative Induction, MR.

Each structure is given as a SMILES string. Where two headings read alike, the source gives them in different places.

For orientation: EC50 means the concentration that produces a half-maximal response. As to `C[C@]12CCC(=O)C=C1CC[C@@H]1[C@@H]2[C@@H](O)C[C@]2(C=O)[C@@H](C(=O)CO)CC[C@@H]12` [aldosterone], the results for the EC50 in assay [1] and in assay [2] were 0.26 nM and approximately 24 nM, respectively. Moreover, the Emax is 92% in assay [3] (setting [13]), 81% in assay [4] (setting [13]) and 109% in assay [5] (setting [13]).

As usually defined, the IC50 is the midpoint of a concentration-inhibition curve. Low readings indicate inhibition by little substance, high ones a need for much substance. In turn, `CC#C[C@]1(O)CC[C@H]2[C@@H]3CCC4=CC(=O)CCC4=C3[C@@H](c3ccc(N(C)C)cc3)C[C@@]21C` [RU486] yielded an IC50 in [6] of 2.2 nM. In assay [7], this molecule registered a concentration for a half-maximal effect (EC50) of 8.7 nM.

For the molecule `C[C@]12CC[C@H]3[C@@H](CCC4=CC(=O)CC[C@@]43C)[C@@H]1CC[C@@H]2C(=O)CO` [11-deoxycorticosterone], the EC50 was approximately 28 nM in assay [2], 0.03 nM in assay [9] and 0.1 nM in [10]. For the same molecule, the Emax was 53% in [3] (setting [14]), 86% in assay [8] (setting [15]), 30% in assay [5] (setting [14]) and 77% in assay [11] (setting [15]).

With `C[C@]12CCC(=O)C=C1CC[C@@H]1[C@@H]2[C@@H](O)C[C@@]2(C)[C@H]1CC[C@]2(O)C(=O)CO` [cortisol], the EC50 in assay [1] is 1.1 nM; in assay [2] it was approximately 35 nM. Besides, the Emax was 88% in assay [3] (setting [16]), 118% in [8] (setting [17]), 112% in assay [5] (setting [16]) and 117% in assay [11] (setting [17]).

`CC(=O)[C@H]1CC[C@H]2[C@@H]3CCC4=CC(=O)CC[C@@H]4[C@H]3CC[C@]12C` [19norProg] showed an EC50 in assay [1] of 0.2 nM. The Emax in assay [8] (HEK293, read-out: 19norProg % Relative Induction, MR) stood at 79%.

For the molecule `C[C@]12C[C@H](O)[C@H]3[C@@H](CCC4=CC(=O)CC[C@@]43C)[C@@H]1CC[C@@H]2C(=O)CO` [corticosterone], the EC50 in assay [1] came to 0.58 nM; in assay [12] it was 13 nM. Moreover, the Emax was found to be 100% in assay [3] (setting [18]); 88% in assay [8] (setting [19]); 100% in assay [4] (setting [18]); 100% in [5] (setting [18]); 111% in [11] (setting [19]).

On to `CC(=O)[C@H]1CC[C@H]2[C@@H]3CCC4=CC(=O)CC[C@]4(C)[C@H]3CC[C@]12C` [progesterone], for which the Emax in assay [8] (setting [20]) was 38%; in assay [11] (setting [20]), 78%.

Source of the values: article doi:10.1101/822718v2 (biorxiv, 2020).
